The text below walks through data of patent US8937050B2, “Methods and compositions for treatment of autism” (The Johns Hopkins University, priority 2011, dated 2015).

In data set [1] the test system is Diabetes. Conditions: Ozcan et al., 2006, Xue et al., 2008, Sun et al.; cited from earlier work.
For data set [2] the following is noted: human research studies; cited from earlier work.
Data set [3] deals with K562 cells. The experiment in a line: Flow cytometric analysis of mitochondrial mass (Mitotracker). The class given is cell-based, human. Conditions: K562 cells, 1.2 mM SB or 100 μM HU; FIG. 1C. The procedure: (§1) Fibroblasts (70-95% confluent) were treated with 5 mM 4PBA (1 mM for JNK inhibition studies), 600 μM HU, 200 nM TSA, or 5 μM SFN unless otherwise specified.
(§2) K562 cells were incubated with 50 nM Mitotracker Green FM, 300 nM Mitotracker Deep Red 633 (Invitrogen), or PBS as a negative control for 15 min at 37° C. or stained with anti-Pex14 using Caltag Fix and Perm reagents (Invitrogen) following the manufacturer's instructions. Stained cells were suspended in 0.5 mL of 1% paraformaldehyde/PBS and subjected to flow cytometric analysis (FACScan machine, Becton Dickinson, Franklin Lakes, N.J.).
(§3) K562 cells were treated with SB and HU for four to ten days. […] (n≧3 unless otherwise noted).
To determine whether the induction of mitochondrial biogenesis by SB or HU treatment was necessary for the induction of HbF-producing cell production, K562 cells were treated with SB or HU in the presence or absence of AA. […] After two to four days of drug treatment with or without AA, mitochondrial mass was measured using Mitotracker, a mitochondrial stain. Fold change (drug treated/control) is shown. […] After four days of drug treatment with or without AA, cells were stained with DAF. The relative number of cells producing HbF (DAF stained cells) were plotted. […] After eight to ten days of drug treatment, peroxisome proliferation was measured using an antibody against the peroxisomal membrane protein, PEX14 and a FITC-labeled secondary antibody. Fold change (drug treated/control) is shown. In FIGS. 1C, 1D, and 1E, the * represents a statistically significant increase in a measurement between drug treated and control samples or a statistically significant decrease in a measurement between drug treated and drug treated samples in the presence of AA (p≦0.05) (Bars=SEM). This finding indicates dependence of the beneficial effect (i.e., elevated HbF levels) on induced mitochondrial biogenesis. Thus, the therapeutic effects observed in SCD may involve the pharmacological induction of mitochondrial biogenesis by SB or HU. […]

Data set [4] concerns K562 cells. The experiment in a line: Flow cytometric analysis of peroxisome proliferation (PEX14). The class given is cell-based, human. As to conditions: eight to ten days, FIG. 1E. The procedure:
as §1, §2, §3
To determine whether the induction of mitochondrial biogenesis by SB or HU treatment was necessary for the induction of HbF-producing cell production, K562 cells were treated with SB or HU in the presence or absence of AA. […] After two to four days of drug treatment with or without AA, mitochondrial mass was measured using Mitotracker, a mitochondrial stain. Fold change (drug treated/control) is shown. […] After four days of drug treatment with or without AA, cells were stained with DAF. […] After eight to ten days of drug treatment, peroxisome proliferation was measured using an antibody against the peroxisomal membrane protein, PEX14 and a FITC-labeled secondary antibody. […]

For data set [5], the system named is XALD fibroblasts. As to the kind of experiment: Fatty acid β-oxidation of 1-14C-labeled fatty acids. The class given is cell-based, human. Conditions: XALD fibroblasts, five days; FIG. 1B. The protocol: Fatty acid β-oxidation activity in XALD fibroblasts was determined by measuring their capacity to degrade 1-^14C-labeled fatty acids to water-soluble products as described in McGuiness et al., 2003.
4PBA-induced peroxisomal VLCFA β-oxidation (degradation) is dependent on mitochondrial long chain fatty acid (LCFA) β-oxidation (McGuinness et al., 2003). […] Antimycin A (AA) is a cytochrome c reductase inhibitor that inhibits the mitochondrial electron transport chain, mitochondrial biogenesis, and thus, cellular respiration (Ranganathan et al., 2009). […] XALD fibroblasts were treated with 4PBA in the presence or absence of antimycin A (AA), a cytochrome c reductase inhibitor, for five days and β-oxidation levels of LCFA (C16:0) and VLCFA (C24:0) levels were measured.

“Also recorded” adds a separate entry of the source.

For `C[S@@+]([O-])CCCCN=C=S` [SFN, 1-isothiocyanato-4R-(methylsulfinyl)butane], in data set [1], the “Therapeutic Effect” value is “hyperglycemia normalization; also recorded: improve glucose utilization”. The adverse effects result in data set [2] was “not shown any significant adverse effects”.
In the case of `NC(=O)NO` [HU, hydroxyurea], in data set [3], the mitochondrial mass result is on record as “significantly increased”. Besides, the peroxisomal proliferation result in data set [4] is listed as “significantly increased”.
Take 4-phenylbutyrate [4PBA]: in data set [5], the “LCFA (C16:0) β-oxidation” value is “induced” and the “VLCFA (C24:0) β-oxidation” value is recorded as “induced”.
